How the values were obtained:
[1] = molecular target: T1, Amine oxidase [flavin-containing] A (Homo sapiens, UniProt P21397); assay: Inhibition of human recombinant MAO-A assessed as inhibition of production of hydrogen peroxide at 100 uM after 15 mins by the Amplex Red fluorimetric method
T1 sequence (P21397 whole entry): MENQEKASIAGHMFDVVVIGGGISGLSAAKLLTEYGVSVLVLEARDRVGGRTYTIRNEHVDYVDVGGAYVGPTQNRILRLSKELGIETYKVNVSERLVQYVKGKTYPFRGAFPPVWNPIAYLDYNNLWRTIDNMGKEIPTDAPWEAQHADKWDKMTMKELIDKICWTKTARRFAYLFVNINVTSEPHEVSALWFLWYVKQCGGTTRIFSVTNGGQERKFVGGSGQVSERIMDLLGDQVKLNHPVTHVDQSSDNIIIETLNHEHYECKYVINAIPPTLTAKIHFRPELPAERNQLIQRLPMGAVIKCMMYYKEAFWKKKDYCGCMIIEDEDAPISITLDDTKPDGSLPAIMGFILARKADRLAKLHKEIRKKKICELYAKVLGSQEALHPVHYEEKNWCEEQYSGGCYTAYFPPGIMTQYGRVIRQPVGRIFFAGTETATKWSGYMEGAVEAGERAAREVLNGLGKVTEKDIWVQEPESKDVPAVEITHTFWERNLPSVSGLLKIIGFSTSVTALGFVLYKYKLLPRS

[2] = molecular target: T2, Amine oxidase [flavin-containing] B (Homo sapiens, UniProt P27338); assay: Inhibition of human recombinant MAO-B assessed as inhibition of production of hydrogen peroxide at 100 uM after 15 mins by the Amplex Red fluorimetric method
T2 sequence (P27338 whole entry): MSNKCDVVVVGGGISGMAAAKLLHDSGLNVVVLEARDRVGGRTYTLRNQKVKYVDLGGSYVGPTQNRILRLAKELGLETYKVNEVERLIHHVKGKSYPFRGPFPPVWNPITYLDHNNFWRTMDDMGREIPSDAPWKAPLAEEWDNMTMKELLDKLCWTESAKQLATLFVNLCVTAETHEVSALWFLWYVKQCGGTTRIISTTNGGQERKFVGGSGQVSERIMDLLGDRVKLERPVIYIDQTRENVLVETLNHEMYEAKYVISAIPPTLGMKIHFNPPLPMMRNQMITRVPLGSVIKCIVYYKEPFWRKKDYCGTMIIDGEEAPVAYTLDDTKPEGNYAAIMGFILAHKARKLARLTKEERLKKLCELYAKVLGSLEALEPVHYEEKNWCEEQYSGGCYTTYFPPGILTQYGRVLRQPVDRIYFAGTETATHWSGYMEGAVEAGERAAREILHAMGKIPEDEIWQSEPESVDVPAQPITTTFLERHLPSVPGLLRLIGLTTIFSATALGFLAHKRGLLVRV

[3] = molecular target: T2, Amine oxidase [flavin-containing] B; assay: Inhibition of human recombinant MAO-B assessed as inhibition of production of hydrogen peroxide at 1 mM after 15 mins by the Amplex Red fluorimetric method

O=C(O)c1coc2ccccc2c1=O
IC50 [1]: Not Active

O=C(O)c1cc(=O)c2ccccc2o1 [CHROMOCARB]
IC50 [1]: Not Active
IC50 [2]: Not Active

O=C(NCCN1CCOCC1)c1ccc(Cl)cc1 [MOCLOBEMIDE]
IC50 [3]: Not Active
